# In US12390437B2, “Itaconic acid derivatives and uses thereof intreating an inflammatory disease or a disease associated with an undesirable immune response” (Sitryx Therapeutics Limited, priority 2019, dated 2025):
# Tested on: hepatocytes
# Test: Hepatocyte stability assay (human)
# Format: in vitro ADME
# Details: 10 μM compound, 0.5×10^6 cells/mL, 60 minutes
# Method in brief: (§1)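 Cryopreserved hepatocytes (viability >70%), 0.5×10^6 cells/mL in Leibovitz buffer, incubated at 37 °C with 10 μM compound (0.1% DMSO), duplicates; buffer-only incubations as negative control. Samples at 0-60 min quenched in acetonitrile, parent measured by LC-MS/MS; half-life and Clint (μL min^−1 10^−6 cells) from ln % remaining versus time slope.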
row,CIint (μL min^−1 10^−6 cells),Structure (SMILES)
1,134,"C=C(CC(=O)O[C@H](C)CCCCCC)C(=O)OCCC(=O)O [Example 88, (R)-3-((2-methylene-4-(octan-2-yloxy)-4-oxobutanoyl)oxy)propanoic acid]"
2,29,"C=C(CC(=O)O[C@@H](C)CCCCCC)C(=O)OCC(=O)O [Example 89, (S)-2-((2-methylene-4-(octan-2-yloxy)-4-oxobutanoyl)oxy)acetic acid]"

# Tested on: not listed separately
# Test: Hepatocyte stability assay (human)
# Format: in vitro ADME
# Details: cryopreserved hepatocytes, 10 μM compound, 0.5×10^6 cells/mL, 60 minutes, read-out: T½
# Method in brief: as §1
row,half-life at 10 μM [min],Structure (SMILES)
1,13,"C=C(CC(=O)O[C@H](C)CCCCCC)C(=O)OCCC(=O)O [Example 88, (R)-3-((2-methylene-4-(octan-2-yloxy)-4-oxobutanoyl)oxy)propanoic acid]"
2,49,"C=C(CC(=O)O[C@@H](C)CCCCCC)C(=O)OCC(=O)O [Example 89, (S)-2-((2-methylene-4-(octan-2-yloxy)-4-oxobutanoyl)oxy)acetic acid]"

# Tested on: IL-6 cytokine output from THP-1s
# Test: THP-1 AlphaLISA IL-6 cytokine assay
# Format: cell-based, human
# Details: Homo sapiens; PMA-differentiated THP-1 cells, LPS 24 hr then Nigericin 1 hour
# Method in brief: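 Cells are differentiated with PMA over 72 h, switched to 1% FBS medium and treated with compound for 30 min before LPS stimulation for 24 h. Nigericin is added for a final hour, and secreted cytokine is measured by AlphaLISA, with IC50 fitted from percent inhibition.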
row,IC50 [µM],Structure (SMILES)
1,20.4,"C=C(CC(=O)O[C@H](C)CCCCCC)C(=O)OCCC(=O)O [Example 88, (R)-3-((2-methylene-4-(octan-2-yloxy)-4-oxobutanoyl)oxy)propanoic acid]"
2,12.6,"C=C(CC(=O)O[C@@H](C)CCCCCC)C(=O)OCC(=O)O [Example 89, (S)-2-((2-methylene-4-(octan-2-yloxy)-4-oxobutanoyl)oxy)acetic acid]"

# Tested on: not listed separately
# Test: Mouse pharmacokinetic study, oral administration
# Format: in vivo
# Details: male, C57BL/6, mouse, plasma, po, 100 mg/kg, plasma, male C57BL/6 mice, oral gavage 100 mg/kg, 0.083 h; read-out: Parent compound concentrations following oral administration, Time 0.083 h
# Method in brief: (§2)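 Young adult male C57BL/6 mice get a single 10 mg/kg IV or 100 mg/kg oral dose. Semi-serial plasma sampling, three mice per point, and LC-MS/MS quantitation follow.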
row,concentration at 0.083 h [ng/mL],Structure (SMILES)
1,53900,"C=C(CC(=O)O[C@H](C)CCCCCC)C(=O)OCCC(=O)O [Example 88, (R)-3-((2-methylene-4-(octan-2-yloxy)-4-oxobutanoyl)oxy)propanoic acid]"
2,44000,"C=C(CC(=O)O[C@@H](C)CCCCCC)C(=O)OCC(=O)O [Example 89, (S)-2-((2-methylene-4-(octan-2-yloxy)-4-oxobutanoyl)oxy)acetic acid]"

# Same assay, conditions: male, C57BL/6, mouse, plasma, po, 100 mg/kg, plasma, male C57BL/6 mice, oral gavage 100 mg/kg, 0.25 h; read-out: Parent compound concentrations following oral administration, Time 0.25 h
row,concentration at 0.25 h [ng/mL],Structure (SMILES)
1,43600,"C=C(CC(=O)O[C@H](C)CCCCCC)C(=O)OCCC(=O)O [Example 88, (R)-3-((2-methylene-4-(octan-2-yloxy)-4-oxobutanoyl)oxy)propanoic acid]"
2,39100,"C=C(CC(=O)O[C@@H](C)CCCCCC)C(=O)OCC(=O)O [Example 89, (S)-2-((2-methylene-4-(octan-2-yloxy)-4-oxobutanoyl)oxy)acetic acid]"

# Same assay, conditions: male, C57BL/6, mouse, plasma, po, 100 mg/kg, plasma, male C57BL/6 mice, oral gavage 100 mg/kg, 0.5 h; read-out: Parent compound concentrations following oral administration, Time 0.5 h
row,concentration at 0.5 h [ng/mL],Structure (SMILES)
1,33800,"C=C(CC(=O)O[C@H](C)CCCCCC)C(=O)OCCC(=O)O [Example 88, (R)-3-((2-methylene-4-(octan-2-yloxy)-4-oxobutanoyl)oxy)propanoic acid]"
2,28500,"C=C(CC(=O)O[C@@H](C)CCCCCC)C(=O)OCC(=O)O [Example 89, (S)-2-((2-methylene-4-(octan-2-yloxy)-4-oxobutanoyl)oxy)acetic acid]"

# Same assay, conditions: male, C57BL/6, mouse, plasma, po, 100 mg/kg, plasma, male C57BL/6 mice, oral gavage 100 mg/kg, 1 h; read-out: Parent compound concentrations following oral administration, Time 1 h
row,concentration at 1 h [ng/mL],Structure (SMILES)
1,12700,"C=C(CC(=O)O[C@H](C)CCCCCC)C(=O)OCCC(=O)O [Example 88, (R)-3-((2-methylene-4-(octan-2-yloxy)-4-oxobutanoyl)oxy)propanoic acid]"
2,14000,"C=C(CC(=O)O[C@@H](C)CCCCCC)C(=O)OCC(=O)O [Example 89, (S)-2-((2-methylene-4-(octan-2-yloxy)-4-oxobutanoyl)oxy)acetic acid]"

# Same assay, conditions: male, C57BL/6, mouse, plasma, po, 100 mg/kg, plasma, male C57BL/6 mice, oral gavage 100 mg/kg, 2 h; read-out: Parent compound concentrations following oral administration, Time 2 h
row,concentration at 2 h [ng/mL],Structure (SMILES)
1,10500,"C=C(CC(=O)O[C@H](C)CCCCCC)C(=O)OCCC(=O)O [Example 88, (R)-3-((2-methylene-4-(octan-2-yloxy)-4-oxobutanoyl)oxy)propanoic acid]"
2,4740,"C=C(CC(=O)O[C@@H](C)CCCCCC)C(=O)OCC(=O)O [Example 89, (S)-2-((2-methylene-4-(octan-2-yloxy)-4-oxobutanoyl)oxy)acetic acid]"

# Same assay, conditions: male, C57BL/6, mouse, plasma, po, 100 mg/kg, plasma, male C57BL/6 mice, oral gavage 100 mg/kg, 4 h; read-out: Parent compound concentrations following oral administration, Time 4 h
row,concentration at 4 h [ng/mL],Structure (SMILES)
1,4100,"C=C(CC(=O)O[C@H](C)CCCCCC)C(=O)OCCC(=O)O [Example 88, (R)-3-((2-methylene-4-(octan-2-yloxy)-4-oxobutanoyl)oxy)propanoic acid]"
2,918,"C=C(CC(=O)O[C@@H](C)CCCCCC)C(=O)OCC(=O)O [Example 89, (S)-2-((2-methylene-4-(octan-2-yloxy)-4-oxobutanoyl)oxy)acetic acid]"

# Same assay, conditions: male, C57BL/6, mouse, plasma, po, 100 mg/kg, plasma, male C57BL/6 mice, oral gavage 100 mg/kg, 6 h; read-out: Parent compound concentrations following oral administration, Time 6 h
row,concentration at 6 h [ng/mL],Structure (SMILES)
1,1950,"C=C(CC(=O)O[C@H](C)CCCCCC)C(=O)OCCC(=O)O [Example 88, (R)-3-((2-methylene-4-(octan-2-yloxy)-4-oxobutanoyl)oxy)propanoic acid]"
2,582,"C=C(CC(=O)O[C@@H](C)CCCCCC)C(=O)OCC(=O)O [Example 89, (S)-2-((2-methylene-4-(octan-2-yloxy)-4-oxobutanoyl)oxy)acetic acid]"

# Same assay, conditions: male, C57BL/6, mouse, plasma, po, 100 mg/kg, plasma, male C57BL/6 mice, oral gavage 100 mg/kg, 8 h; read-out: Parent compound concentrations following oral administration, Time 8 h
row,concentration at 8 h [ng/mL],Structure (SMILES)
1,72,"C=C(CC(=O)O[C@H](C)CCCCCC)C(=O)OCCC(=O)O [Example 88, (R)-3-((2-methylene-4-(octan-2-yloxy)-4-oxobutanoyl)oxy)propanoic acid]"
2,16,"C=C(CC(=O)O[C@@H](C)CCCCCC)C(=O)OCC(=O)O [Example 89, (S)-2-((2-methylene-4-(octan-2-yloxy)-4-oxobutanoyl)oxy)acetic acid]"

# Same assay, conditions: male, C57BL/6, mouse, plasma, po, 100 mg/kg, plasma, male C57BL/6 mice, oral gavage 100 mg/kg, 24 h; read-out: Parent compound concentrations following oral administration, Time 24 h
row,concentration at 24 h [ng/mL],Structure (SMILES)
1,5.5,"C=C(CC(=O)O[C@H](C)CCCCCC)C(=O)OCCC(=O)O [Example 88, (R)-3-((2-methylene-4-(octan-2-yloxy)-4-oxobutanoyl)oxy)propanoic acid]"
2,6.8,"C=C(CC(=O)O[C@@H](C)CCCCCC)C(=O)OCC(=O)O [Example 89, (S)-2-((2-methylene-4-(octan-2-yloxy)-4-oxobutanoyl)oxy)acetic acid]"

# Tested on: not listed separately
# Test: Mouse pharmacokinetic study, intravenous dosing
# Format: in vivo
# Details: male, C57BL/6, mouse, iv; plasma, 10 mg/kg i.v., time 0.05 h; read-out: Parent compound concentration following intravenous administration
# Method in brief: as §2
row,concentration at 0.05 h [ng/mL],Structure (SMILES)
1,42500,"C=C(CC(=O)O[C@H](C)CCCCCC)C(=O)OCCC(=O)O [Example 88, (R)-3-((2-methylene-4-(octan-2-yloxy)-4-oxobutanoyl)oxy)propanoic acid]"
2,27800,"C=C(CC(=O)O[C@@H](C)CCCCCC)C(=O)OCC(=O)O [Example 89, (S)-2-((2-methylene-4-(octan-2-yloxy)-4-oxobutanoyl)oxy)acetic acid]"

# Same assay, conditions: male, C57BL/6, mouse, iv; plasma, 10 mg/kg i.v., time 0.133 h; read-out: Parent compound concentration following intravenous administration
row,concentration at 0.133 h [ng/mL],Structure (SMILES)
1,23500,"C=C(CC(=O)O[C@H](C)CCCCCC)C(=O)OCCC(=O)O [Example 88, (R)-3-((2-methylene-4-(octan-2-yloxy)-4-oxobutanoyl)oxy)propanoic acid]"
2,12400,"C=C(CC(=O)O[C@@H](C)CCCCCC)C(=O)OCC(=O)O [Example 89, (S)-2-((2-methylene-4-(octan-2-yloxy)-4-oxobutanoyl)oxy)acetic acid]"

# Same assay, conditions: male, C57BL/6, mouse, iv; plasma, 10 mg/kg i.v., time 0.25 h; read-out: Parent compound concentration following intravenous administration
row,concentration at 0.25 h [ng/mL],Structure (SMILES)
1,12400,"C=C(CC(=O)O[C@H](C)CCCCCC)C(=O)OCCC(=O)O [Example 88, (R)-3-((2-methylene-4-(octan-2-yloxy)-4-oxobutanoyl)oxy)propanoic acid]"
2,7680,"C=C(CC(=O)O[C@@H](C)CCCCCC)C(=O)OCC(=O)O [Example 89, (S)-2-((2-methylene-4-(octan-2-yloxy)-4-oxobutanoyl)oxy)acetic acid]"

# Same assay, conditions: male, C57BL/6, mouse, iv; plasma, 10 mg/kg i.v., time 0.5 h; read-out: Parent compound concentration following intravenous administration
row,concentration at 0.5 h [ng/mL],Structure (SMILES)
1,6250,"C=C(CC(=O)O[C@H](C)CCCCCC)C(=O)OCCC(=O)O [Example 88, (R)-3-((2-methylene-4-(octan-2-yloxy)-4-oxobutanoyl)oxy)propanoic acid]"
2,2300,"C=C(CC(=O)O[C@@H](C)CCCCCC)C(=O)OCC(=O)O [Example 89, (S)-2-((2-methylene-4-(octan-2-yloxy)-4-oxobutanoyl)oxy)acetic acid]"

# Same assay, conditions: male, C57BL/6, mouse, iv; plasma, 10 mg/kg i.v., time 1 h; read-out: Parent compound concentration following intravenous administration
row,concentration at 1 h [ng/mL],Structure (SMILES)
1,2510,"C=C(CC(=O)O[C@H](C)CCCCCC)C(=O)OCCC(=O)O [Example 88, (R)-3-((2-methylene-4-(octan-2-yloxy)-4-oxobutanoyl)oxy)propanoic acid]"
2,430,"C=C(CC(=O)O[C@@H](C)CCCCCC)C(=O)OCC(=O)O [Example 89, (S)-2-((2-methylene-4-(octan-2-yloxy)-4-oxobutanoyl)oxy)acetic acid]"

# Same assay, conditions: male, C57BL/6, mouse, iv; plasma, 10 mg/kg i.v., time 2 h; read-out: Parent compound concentration following intravenous administration
row,concentration at 2 h [ng/mL],Structure (SMILES)
1,200,"C=C(CC(=O)O[C@H](C)CCCCCC)C(=O)OCCC(=O)O [Example 88, (R)-3-((2-methylene-4-(octan-2-yloxy)-4-oxobutanoyl)oxy)propanoic acid]"
2,65,"C=C(CC(=O)O[C@@H](C)CCCCCC)C(=O)OCC(=O)O [Example 89, (S)-2-((2-methylene-4-(octan-2-yloxy)-4-oxobutanoyl)oxy)acetic acid]"

# Same assay, conditions: male, C57BL/6, mouse, iv; plasma, 10 mg/kg i.v., time 4 h; read-out: Parent compound concentration following intravenous administration
row,concentration at 4 h [ng/mL],Structure (SMILES)
1,40,"C=C(CC(=O)O[C@H](C)CCCCCC)C(=O)OCCC(=O)O [Example 88, (R)-3-((2-methylene-4-(octan-2-yloxy)-4-oxobutanoyl)oxy)propanoic acid]"
2,6.8,"C=C(CC(=O)O[C@@H](C)CCCCCC)C(=O)OCC(=O)O [Example 89, (S)-2-((2-methylene-4-(octan-2-yloxy)-4-oxobutanoyl)oxy)acetic acid]"

# Same assay, conditions: male, C57BL/6, mouse, iv; plasma, 10 mg/kg i.v., time 6 h; read-out: Parent compound concentration following intravenous administration
row,concentration at 6 h [ng/mL],Structure (SMILES)
1,11,"C=C(CC(=O)O[C@H](C)CCCCCC)C(=O)OCCC(=O)O [Example 88, (R)-3-((2-methylene-4-(octan-2-yloxy)-4-oxobutanoyl)oxy)propanoic acid]"
2,< 4,"C=C(CC(=O)O[C@@H](C)CCCCCC)C(=O)OCC(=O)O [Example 89, (S)-2-((2-methylene-4-(octan-2-yloxy)-4-oxobutanoyl)oxy)acetic acid]"

# Same assay, conditions: male, C57BL/6, mouse, iv; plasma, 10 mg/kg i.v., time 8 h; read-out: Parent compound concentration following intravenous administration
row,concentration at 8 h [ng/mL],Structure (SMILES)
1,4.2,"C=C(CC(=O)O[C@H](C)CCCCCC)C(=O)OCCC(=O)O [Example 88, (R)-3-((2-methylene-4-(octan-2-yloxy)-4-oxobutanoyl)oxy)propanoic acid]"
2,< 4,"C=C(CC(=O)O[C@@H](C)CCCCCC)C(=O)OCC(=O)O [Example 89, (S)-2-((2-methylene-4-(octan-2-yloxy)-4-oxobutanoyl)oxy)acetic acid]"
